Here are results for one compound from patent publication US9943504B2, “Arginine methyltransferase inhibitors and uses thereof” (Epizyme, Inc., priority 2013, dated 2018).

The assay deals with mono-methyl arginine in RKO cells. The assay is described as follows: RKO Methylation Assay (In Cell Western). It is filed as cell-based. To be noted: Homo sapiens, 72 hours, percent activation, read-out: RGG ICW EC30. An excerpt: RKO adherent cells were purchased from ATCC (American Type Culture Collection), Manassas, Va., USA. DMEM/Glutamax medium, penicillin-streptomycin, heat inactivated fetal bovine serum, 0.05% trypsin and D-PBS were purchased from Life Technologies, Grand Island, N.Y., USA. Odyssey blocking buffer, 800CW goat anti-rabbit IgG (H+L) antibody, and Licor Odyssey infrared scanner were purchased from Licor Biosciences, Lincoln, Nebr., USA. Mono-methyl arginine antibody was purchased from Cell Signaling Technology, Danvers, Mass., USA. Methanol was purchased from VWR, Franklin, Mass., USA. 10% Tween 20 was purchased from KPL, Inc., Gaithersburg, Md., USA. DRAQ5 was purchased from Biostatus Limited, Leicestershire, UK.
RKO adherent cells were maintained in growth medium (DMEM/Glutamax medium supplemented with 10% v/v heat inactivated fetal bovine serum and 100 units/mL penicillin-streptomycin) and cultured at 37° C. under 5% CO2.
Cell Treatment, in Cell Western (ICW) for Detection of Mono-Methyl Arginine and DNA Content.
RKO cells were seeded in assay medium at a concentration of 20,000 cells per mL to a poly-D-lysine coated 384 well culture plate (BD Biosciences 356697) with 50 μL per well. Compound (100 nL) from a 96-well source plate was added directly to 384 well cell plate. Plates were incubated at 37° C., 5% CO2 for 72 hours. After three days of incubation, plates were brought to room temperature outside of the incubator for ten minutes and blotted on paper towels to remove cell media. 50 μL of ice cold 100% methanol was added directly to each well and incubated for 30 min at room temperature. After 30 min, plates were transferred to a Biotek EL406 plate washer and washed 2 times with 100 μL per well of wash buffer (1×PBS). Next 60 μL per well of Odyssey blocking buffer (Odyssey Buffer with 0.1% Tween 20 (v/v)) were added to each plate and incubated 1 hour at room temperature. Blocking buffer was removed and 20 μL per well of primary antibody was added (mono-methyl arginine diluted 1:200 in Odyssey buffer with 0.1% Tween 20 (v/v)) and plates were incubated overnight (16 hours) at 4° C. Plates were washed 5 times with 100 μL per well of wash buffer. Next 20 μL per well of secondary antibody was added (1:200 800CW goat anti-rabbit IgG (H+L) antibody, 1:1000 DRAQ5 (Biostatus limited) in Odyssey buffer with 0.1% Tween 20 (v/v)) and incubated for 1 hour at room temperature. The plates were washed 5 times with 100 μL per well wash buffer then 2 times with 100 μL per well of water. Plates were allowed to dry at room temperature then imaged on the Licor Odyssey machine which measures integrated intensity at 700 nm and 800 nm wavelengths. Both 700 and 800 channels were scanned.
First, the ratio for each well was determined by:
Each plate included fourteen control wells of DMSO only treatment (minimum activation) as well as fourteen control wells for maximum activation treated with 20 μM of a reference compound. The average of the ratio values for each control type was calculated and used to determine the percent activation for each test well in the plate. Reference compound was serially diluted three-fold in DMSO for a total of nine test concentrations, beginning at 20 μM. Percent activation was determined and EC30 curves were generated using triplicate wells per concentration of compound.

The EC30 is the point of the concentration-response curve where the effect stands at 30%. `CN(CCN)Cc1n[nH]c2cccc(OCc3ccccc3)c12` [Compound 1]: the EC30 is at most 3 µM.
